This is an account of results in article PMC11071649, “Synthesis and Selective Anticancer Activity Evaluation of 2-phenylacrylonitrile Derivatives as Tubulin Inhibitors” (Current Medicinal Chemistry, 2024).

Type in all cases: cell-based, human
Test [1] relates to MCF-10A normal breast cell. Put plainly: MTT assay, MCF-10A normal cells. The note with it: 48 h. In short, it runs like this: (§1)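 Cell lines plated in 96-well plates and exposed to compounds; anti-proliferative activity determined by MTT read-out as inhibition of net cell growth.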
In test [2] the test system is diffuse large B-cell lymphoma SU-DHL-10 cell. Briefly: MTT anti-proliferative assay, SU-DHL-10. Put shortly: as §1
Test [3] has as its system BEL-7402 liver cancer cell. Put plainly: MTT anti-proliferative assay, BEL-7402. The note with it: for IC50: MTT, 48 h. In short, it runs like this:
as §1
Background: Tetrazolium assays rely on reduction of a dye to a coloured formazan, in cell work by metabolically active cells.

Test [4] deals with Raji B lymphoblastoid cell. Briefly: MTT anti-proliferative assay, Raji. Put shortly: as §1
Test [5] relates to SGC-7901 early differentiation gastric cancer cell. Put plainly: MTT anti-proliferative assay, SGC-7901. The note with it: MTT, 48 h. Put shortly: as §1
Test [6] deals with HeLa cervical cancer cell. Briefly: MTT anti-proliferative assay, HeLa. Conditions: MTT, 48 h. In short, it runs like this: as §1
For another test, the system named is AGS gastric cancer cell. Put plainly: MTT anti-proliferative assay, AGS. The note with it: for IC50: MTT, 48 h. Put shortly: as §1
For test [7], the system named is MGC-803 late stage differentiation gastric cancer cell. Briefly: MTT anti-proliferative assay, MGC-803. Conditions: for IC50: MTT, 48 h. Put shortly: as §1
The next test relates to A549 lung cancer cell. Briefly: MTT anti-proliferative assay, A549. The note with it: MTT, 48 h. Put shortly:
as §1

The subject of test [8] is HCT116 colectal cancer cell. Put plainly: MTT anti-proliferative assay, HCT116. The note with it: for IC50: MTT, 48 h, read-out: IC50 HCT-116. In short, it runs like this: as §1
The next test relates to HepG2 hepatoma cell. Put plainly: MTT anti-proliferative assay, HepG2. Conditions: MTT, 48 h; read-out: IC50 HepG-2. Put shortly: as §1
The test system of another test is MCF-7 breast cancer cell. Put plainly: MTT anti-proliferative assay, MCF-7. The note with it: MTT, 48 h. Put shortly:
as §1

Another test deals with L-02 normal liver cell. Put plainly: MTT assay, L-02 normal cells. The note with it: 48 h. In short, it runs like this:
as §1

Setting [9] is: MTT, 48 h, read-out: IC50 SU-DHL-10.

Read-outs that look alike come from different tables or passages of the source.

By IC50 is commonly meant the concentration that gives 50% inhibition. Take `N#C/C(=C\c1ccc(/C=C(\C#N)c2ccc(C(F)(F)F)cc2)cc1)c1ccc(C(F)(F)F)cc1` [Compound 1f2w]: the IC50 was over 100 µM in test [1]; 0.022 µM in test [2] (read-out: IC50 SU-DHL-10 cells); over 100 µM in [3]; 0.048 µM in [4] (read-out: IC50 Raji cells); over 100 µM in test [5]; over 100 µM in [6]. Moreover, the IC50 (in the test on AGS gastric cancer cell; in [7]; with A549 lung cancer cell; in [8]; in the test with HepG2 hepatoma cell; with MCF-7 breast cancer cell) was over 100 µM throughout. In addition, the IC50 with L-02 normal liver cell is over 100 µM. Moreover, the “SI (selectivity index), IC50 (L-02)/IC50 (SU-DHL-10)” value in test [2] is given as over 4545. Moreover, the “SI (selectivity index), IC50 (L-02)/IC50 (Raji)” value in [4] was over 2083.

As for `N#C/C(=C\c1ccco1)c1ccc(C(F)(F)F)cc1` [Compound 1f3a], the IC50 in test [1] is over 100 µM; in [2] (setting [9]), over 100 µM; in test [3] it was over 100 µM; in [4] (MTT, 48 h, read-out: IC50 Raji), over 100 µM; in test [5], over 100 µM; in test [6], over 100 µM. Also, the IC50 (in the test with AGS gastric cancer cell; in [7]; with A549 lung cancer cell; in test [8]; in the test with HepG2 hepatoma cell; in the test on MCF-7 breast cancer cell) was over 100 µM each time. This compound also showed an IC50 in the test with L-02 normal liver cell of over 100 µM.

For `N#C/C(=C\c1cccs1)c1ccc(C(F)(F)F)cc1` [Compound 1f3b], the IC50 is over 100 µM in test [1]; over 100 µM in [2] (setting [9]); over 100 µM in test [3]; over 100 µM in test [4] (MTT, 48 h, read-out: IC50 Raji); over 100 µM in test [5]; over 100 µM in [6]. The IC50 with AGS gastric cancer cell is 65 ± 17.9 µM; in [7], over 100 µM; with A549 lung cancer cell, over 100 µM; in test [8], over 100 µM; in the test on HepG2 hepatoma cell, over 100 µM; in the test on MCF-7 breast cancer cell it was over 100 µM. Moreover, the IC50 in the test on L-02 normal liver cell was over 100 µM. In the test with AGS gastric cancer cell, the “SI (selectivity index), IC50 (L-02)/IC50 (AGS)” value is given as over 1.5.

As to `N#C/C(=C\c1ccccn1)c1ccc(C(F)(F)F)cc1` [Compound 1f3c], the IC50 in test [1] was over 100 µM; in test [2] (setting [9]) it was over 100 µM; in test [3], over 100 µM; in test [4] (MTT, 48 h, read-out: IC50 Raji) it was over 100 µM; in test [5] it was over 100 µM; in [6], over 100 µM. The IC50 with AGS gastric cancer cell is over 100 µM; in test [7] it was over 100 µM; in the test with A549 lung cancer cell, over 100 µM; in test [8], 87.6 ± 9.1 µM; in the test with HepG2 hepatoma cell it was over 100 µM; in the test with MCF-7 breast cancer cell, over 100 µM. For the same compound, the IC50 with L-02 normal liver cell was over 100 µM. For the same compound, the “SI (selectivity index), IC50 (L-02)/IC50 (HCT-116)” value in test [8] is recorded as over 1.1.

In the case of `N#C/C(=C\c1cccc2ccccc12)c1ccc(C(F)(F)F)cc1` [Compound 1f3d], the IC50 was over 100 µM in test [1]; over 100 µM in [2] (setting [9]); over 100 µM in test [3]; over 100 µM in test [4] (MTT, 48 h, read-out: IC50 Raji); over 100 µM in [5]; over 100 µM in test [6]. The IC50 (in the test with AGS gastric cancer cell; in test [7]; in the test with A549 lung cancer cell; in test [8]; in the test with HepG2 hepatoma cell; in the test on MCF-7 breast cancer cell) was over 100 µM throughout. Also, in the test with L-02 normal liver cell, the IC50 was over 100 µM.

Turning to `CCN(CC)c1ccc(/C=C(\C#N)c2cc(OC)c(OC)c(OC)c2)cc1` [Compound 1g2b], the IC50 in test [1] is 0.05 ± 0.001 µM; in [2] (setting [9]), 2.4 ± 0.1 µM; in test [3], 0.03 ± 0.01 µM; in test [4] (MTT, 48 h, read-out: IC50 Raji), 0.37 ± 0.06 µM; in [5], over 100 µM; in test [6], over 100 µM. Also, the IC50 is 7.5 ± 0.4 µM in the test with AGS gastric cancer cell; 0.12 ± 0.03 µM in test [7]; over 100 µM in the test with A549 lung cancer cell; 1 ± 0.1 µM in test [8]; over 100 µM with HepG2 hepatoma cell; 0.45 ± 0.06 µM with MCF-7 breast cancer cell. Besides, in the test on L-02 normal liver cell, the IC50 is over 100 µM. In [2], the “SI (selectivity index), IC50 (L-02)/IC50 (SU-DHL-10)” value is reported as over 34.0. For the same compound, the “SI (selectivity index), IC50 (L-02)/IC50 (BEL-7402)” value in test [3] is over 3333. Besides, the “SI (selectivity index), IC50 (L-02)/IC50 (Raji)” value in test [4] is listed as over 270. Also, the “SI (selectivity index), IC50 (L-02)/IC50 (AGS)” value in the test with AGS gastric cancer cell is over 13.1. For the same compound, the “SI (selectivity index), IC50 (L-02)/IC50 (MGC-803)” value in [7] is listed as over 819. The “SI (selectivity index), IC50 (L-02)/IC50 (HCT-116)” value in [8] is reported as over 96.1.
